{"source": "patent US20100029778A1", "about": "“HAIR AND/OR SCALP TREATMENT COMPOSITIONS” (Unilever Home & Personal Care USA, Division of Conopco, Inc., priority 2001, published 2010)", "key": {"[1]": {"system": "histamine-induced itch", "assay": "Histamine-induced itch, topically applied Aqueous Cream BP, histamine iontophoresis, VAS", "settings": "for Itch score (area under the curve): volar forearm skin, after 4 hours, VAS area under curve 0 to 5 minutes; for Itch score % of control: control = vehicle alone"}, "[2]": {"system": "histamine-induced itch", "assay": "Histamine-induced itch, test material topically applied in ethanol:Vaseline Intensive Care Lotion 1:1", "type": "in vivo, human", "settings": "for Itch score % of control: 50 mM in ethanol mixed 1:1 with VICL, control = ethanol:VICL vehicle alone of the same run; for Effect on histamine-induced itch (in words): topically applied in the presence of a lotion"}, "[3]": {"system": "histamine-induced itch", "assay": "Histamine-induced itch, test material applied under water-impermeable patch for 24 hours before histamine challenge", "settings": "applied by patch"}, "[4]": {"settings": "HU-210 0.05% (w/v) in Aqueous Cream BP"}, "[5]": {"settings": "HU-210 0.5% (w/v) in Aqueous Cream BP"}}, "note": "“And” between values parts separate entries of the source, which are not always exact repeats. Equal entries are not always repeated."}
{"compound": "CCCCCCC(C)(C)c1cc(O)c2c(c1)OC(C)(C)[C@@H]1CC=C(CO)C[C@@H]21", "note": "[HU-210, (6aR)-trans-3-(1,1-Dimethylheptyl)-6a,7,10,10a-tetrahydro-1-hydroxy-6,6-dimethyl-6H-dibenzo[b,d]pyran-9-methanol]", "values": [{"measurement": "Itch score (area under the curve)", "setting": "[1]; [4]", "value": 101}, {"measurement": "Itch score % of control", "setting": "[1]; [4]", "value": 7.3, "unit": "%"}, {"measurement": "Itch score (area under the curve)", "setting": "[1]; [5]", "value": 119}, {"measurement": "Itch score % of control", "setting": "[1]; [5]", "value": 6.2, "unit": "%"}, {"measurement": "Effect on histamine-induced itch (in words)", "setting": "[1]; topically applied in cream", "value": "capable of reducing histamine-induced itch"}]}
{"compound": "CCCCC/C=C\\C/C=C\\CCCCCCCC(=O)NCCO", "note": "[LAMEA, linoleoylethanolamine]", "values": [{"measurement": "Itch score % of control", "setting": "[2]", "value": "169% and 108% and 100%"}, {"measurement": "Effect on histamine-induced itch (in words)", "setting": "[2]", "value": "unable to demonstrate any anti-pruritic action or even appeared to exacerbate the itch response"}]}
{"compound": "CCCCCCCCCCCCCCCC(=O)NCCO", "note": "[PEA, Palmitoylethanolamide]", "values": [{"measurement": "Effect on histamine-induced itch (in words)", "setting": "[3]", "value": "can inhibit histamine-induced itch"}, {"measurement": "Effect on histamine-induced itch (in words)", "setting": "[2]", "value": "can inhibit histamine-induced itch"}]}
{"compound": "CCCCCCCCCCCCCCCCCC(=O)NCCO", "note": "[SEA]", "values": [{"measurement": "Itch score % of control", "setting": "[2]", "value": "231% and 260% and 190%"}, {"measurement": "Effect on histamine-induced itch (in words)", "setting": "[2]", "value": "unable to demonstrate any anti-pruritic action or even appeared to exacerbate the itch response"}]}
